These are literature values, as cited in patent publication US7279184B2, “Methods and compositions comprising Ilex” (HerbalScience, LLC, priority 2003, dated 2007).

On to `Cn1cnc2c1c(=O)[nH]c(=O)n2C` [Theobromine, 3,7-dimethyl-xanthine], for which the half-life after ingestion entry is recorded as “approximately 6 hours”.
